# Experimental data as given in patent publication US20240140991A1, “ANTIBIOTIC NATURAL PRODUCT ANALOGUES” (THE QUEEN'S UNIVERSITY OF BELFAST, priority 2021, published 2024).
# Positions of bridges follow the written chain, without caps; N, C: chain ends. Non-standard residues stand in square brackets, D forms with d. Residues, ends and D or L forms follow the SMILES beside them. ξ: configuration not given here. *: point of attachment. Octanoyl(7-Me) = CC(C)CCCCCC(=O)*; Hexanoyl(4ξ-Me) = CCC(C)CCC(=O)*; dOrn = NCCC[C@@H](N)C(=O)O; Orn = NCCC[C@H](N)C(=O)O; Dap = NC[C@H](N)C(=O)O; Alloc = C=CCOC(=O)*; OAll = C=CCO*
# Test system: Escherichia coli ATCC 25922
# Type: cell-based
# Details: ATCC 25922
# Procedure: Minimum inhibitory concentration (MIC) was determined by broth microdilution according to CLSI guidelines. Blood agar plates were inoculated with glycerol stocks of Escherichia coli ATCC 25922, E. coli ATCC 25922 MCR-1, E. coli MCR-1 (clinical isolate from Utrecht Medical Center, NL), E. coli EQAS MCR-2 (clinical isolate from Wageningen University and Research, NL), Kiebsielia pneumoniae ATCC 11228, K. pneumoniae ATCC 13883, K. pneumonia 2048 (clinical isolate from Vrije Universiteit Amsterdam Medical Center, NL), K. pneumonia JS-123 (clinical isolate from Utrecht Medical Center, NL), Acinetobacter baumannii ATCC 17961, A. baumannil ATCC 17978, A. baumannii 2018-006 (clinical isolate from Rijksinstituut voor Volksgezondheid en Milieu, NL), A. baumannii MDR (clinical isolate from Vrije Universiteit Amsterdam Medical Center, NL), Pseudomonas aeruginosa ATCC 27853, P. aeruginosa PAO1, P. aeruginosa NRZ-03961 (Reference strain from Das Nationale Referenzzentrum für gramnegative Krankenhauserreger, DE), P. aeruginosa M-120 (clinical isolate from Leiden University Medical Center, NL) and Staphylococcus aureus USA300 (clinical isolate from Texas Children's Hospitalm, USA). E. coli 25922 MCR1 was grown on LB agar supplemented with kanamycin. The inoculated agar plates were then incubated for 16 hours at 37° C. Individually grown colonies were subsequently used to inoculate 3 mL aliquots of TSB that were then incubated at 37° C. with shaking at 220 rpm. In parallel, the compounds to be assessed were serially diluted with Mueller-Hinton broth (MHB) in polypropylene 96-well plates (50 μL in each well). Once the OD600 of the bacterial suspensions reached 0.5, the bacteria were diluted with MHB (final concentration 2×10^5 CFU mL^−1) and added to the microplates containing the test compounds (50 μL to each well, final volume: 100 μL). The well-plates were sealed with an adhesive membrane and after 16 hours of incubation at 37° C. with shaking at 220 rpm the wells were visually inspected for bacterial growth. MIC values were defined as the lowest concentration of the compound that prevented visible growth of bacteria.
row,SMILES,Minimum inhibitory concentration (MIC) [µg/mL]
1,CCC(C)CCC(=O)N[C@H](CO)C(=O)N[C@H](Cc1ccc(O)cc1)C(=O)N[C@H](Cc1c[nH]c2ccccc12)C(=O)N[C@H](CCCN)C(=O)N[C@@H](CCCN)C(=O)NCC(=O)N[C@H](CCCN)C(=O)N[C@@H](Cc1c[nH]c2ccccc12)C(=O)N[C@@H]1C(=O)N[C@@H]([C@@H](C)CC)C(=O)NCC(=O)N[C@@H](CO)C(=O)N[C@H](C)C(=O)O[C@@H]1C (stereo partly drawn) [Compound R7] ({Hexanoyl(4ξ-Me)}-[dS][dY][dW][dOrn][Orn]G[dOrn]WTIGS[dA]; ester 9-C; N-terminus assumed),1
2,CCC(C)CCC(=O)N[C@H](CO)C(=O)N[C@H](Cc1ccc(O)cc1)C(=O)N[C@H](Cc1c[nH]c2ccccc12)C(=O)N[C@H](CCCN)C(=O)N[C@@H](CCCN)C(=O)NCC(=O)N[C@H](CCCN)C(=O)N[C@@H](Cc1c[nH]c2ccccc12)C(=O)N[C@@H]1C(=O)N[C@@H]([C@@H](C)CC)C(=O)NCC(=O)N[C@H](CO)C(=O)N[C@H](C)C(=O)O[C@@H]1C (stereo partly drawn) [Compound R8] ({Hexanoyl(4ξ-Me)}-[dS][dY][dW][dOrn][Orn]G[dOrn]WTIG[dS][dA]; ester 9-C; N-terminus assumed),1 to 2
3,CC[C@H](C)[C@@H]1NC(=O)[C@@H](NC(=O)[C@H](Cc2c[nH]c3ccccc23)NC(=O)[C@@H](CCCN)NC(=O)CNC(=O)[C@H](CCCN)NC(=O)[C@@H](CCCN)NC(=O)[C@@H](Cc2c[nH]c3ccccc23)NC(=O)[C@@H](Cc2ccc(O)cc2)NC(=O)[C@@H](CO)NC(=O)CCCCCC(C)C)[C@@H](C)OC(=O)[C@H](C)NC(=O)[C@H](CO)NC(=O)CNC1=O [Compound R9] ({Octanoyl(7-Me)}-[dS][dY][dW][dOrn][Orn]G[dOrn]WTIGSA; ester 9-C; N-terminus assumed),1 to 2
4,CC[C@H](C)[C@@H]1NC(=O)[C@@H](NC(=O)[C@H](Cc2c[nH]c3ccccc23)NC(=O)[C@@H](CCCN)NC(=O)CNC(=O)[C@H](CCCN)NC(=O)[C@@H](CCCN)NC(=O)[C@@H](Cc2c[nH]c3ccccc23)NC(=O)[C@@H](Cc2ccc(O)cc2)NC(=O)[C@@H](CO)NC(=O)CCCCCC(C)C)[C@@H](C)OC(=O)[C@H](C)NC(=O)[C@@H](CO)NC(=O)CNC1=O [Compound R10] ({Octanoyl(7-Me)}-[dS][dY][dW][dOrn][Orn]G[dOrn]WTIG[dS]A; ester 9-C; N-terminus assumed),1 to 2
5,CC[C@H](C)[C@@H]1NC(=O)[C@@H](NC(=O)[C@H](Cc2c[nH]c3ccccc23)NC(=O)[C@@H](CCCN)NC(=O)CNC(=O)[C@H](CCCN)NC(=O)[C@@H](CCCN)NC(=O)[C@@H](Cc2c[nH]c3ccccc23)NC(=O)[C@@H](Cc2ccc(O)cc2)NC(=O)[C@@H](CO)NC(=O)CCCCCC(C)C)[C@@H](C)OC(=O)[C@@H](C)NC(=O)[C@H](CO)NC(=O)CNC1=O [Compound R11] ({Octanoyl(7-Me)}-[dS][dY][dW][dOrn][Orn]G[dOrn]WTIGS[dA]; ester 9-C; N-terminus assumed),1
6,CC[C@H](C)[C@@H]1NC(=O)[C@@H](NC(=O)[C@H](Cc2c[nH]c3ccccc23)NC(=O)[C@@H](CCCN)NC(=O)CNC(=O)[C@H](CCCN)NC(=O)[C@@H](CCCN)NC(=O)[C@@H](Cc2c[nH]c3ccccc23)NC(=O)[C@@H](Cc2ccc(O)cc2)NC(=O)[C@@H](CO)NC(=O)CCCCCC(C)C)[C@@H](C)OC(=O)[C@@H](C)NC(=O)[C@@H](CO)NC(=O)CNC1=O [Compound R12] ({Octanoyl(7-Me)}-[dS][dY][dW][dOrn][Orn]G[dOrn]WTIG[dS][dA]; ester 9-C; N-terminus assumed),1 to 2
7,CC[C@H](C)[C@H](NC(=O)[C@H](CN)NC(=O)[C@H](Cc1c[nH]c2ccccc12)NC(=O)[C@@H](CCCN)NC(=O)CNC(=O)[C@H](CCCN)NC(=O)[C@@H](CCCN)NC(=O)[C@@H](Cc1c[nH]c2ccccc12)NC(=O)[C@@H](Cc1ccc(O)cc1)NC(=O)[C@@H](CO)NC(=O)CCCCCC(C)C)C(=O)N[C@@H](CC(N)=O)C(=O)NCC(=O)NCC(N)=O [Dap9-CONH2] ({Octanoyl(7-Me)}-[dS][dY][dW][dOrn][Orn]G[dOrn]W[Dap]INGG-NH2),4
8,C=CCOC(=O)NC[C@H](NC(=O)[C@H](Cc1c[nH]c2ccccc12)NC(=O)[C@@H](CCCN)NC(=O)CNC(=O)[C@H](CCCN)NC(=O)[C@@H](CCCN)NC(=O)[C@@H](Cc1c[nH]c2ccccc12)NC(=O)[C@@H](Cc1ccc(O)cc1)NC(=O)[C@@H](CO)NC(=O)CCCCCC(C)C)C(=O)N[C@H](C(=O)N[C@@H](CC(N)=O)C(=O)NCC(=O)NCC(N)=O)[C@@H](C)CC [Dap(Alloc)9-CONH2] ({Octanoyl(7-Me)}-[dS][dY][dW][dOrn][Orn]G[dOrn]W[Dap](Alloc)INGG-NH2),2
9,C=CCOC(=O)CNC(=O)CNC(=O)[C@H](CC(N)=O)NC(=O)[C@@H](NC(=O)[C@H](CNC(=O)OCC=C)NC(=O)[C@H](Cc1c[nH]c2ccccc12)NC(=O)[C@@H](CCCN)NC(=O)CNC(=O)[C@H](CCCN)NC(=O)[C@@H](CCCN)NC(=O)[C@@H](Cc1c[nH]c2ccccc12)NC(=O)[C@@H](Cc1ccc(O)cc1)NC(=O)[C@@H](CO)NC(=O)CCCCCC(C)C)[C@@H](C)CC [Dap(Alloc)9-COOAll] ({Octanoyl(7-Me)}-[dS][dY][dW][dOrn][Orn]G[dOrn]W[Dap](Alloc)INGG-OAll),2
10,C=CCOC(=O)NC[C@H](NC(=O)[C@H](Cc1c[nH]c2ccccc12)NC(=O)[C@@H](CCCN)NC(=O)CNC(=O)[C@H](CCCN)NC(=O)[C@@H](CCCN)NC(=O)[C@@H](Cc1c[nH]c2ccccc12)NC(=O)[C@@H](Cc1ccc(O)cc1)NC(=O)[C@@H](CO)NC(=O)CCCCCC(C)C)C(=O)N[C@H](C(=O)N[C@@H](CC(N)=O)C(=O)NCC(=O)NCC(=O)O)[C@@H](C)CC [Dap(Alloc)9-COOH] ({Octanoyl(7-Me)}-[dS][dY][dW][dOrn][Orn]G[dOrn]W[Dap](Alloc)INGG-OH),2
11,C=CCOC(=O)NC[C@H](NC(=O)[C@H](Cc1c[nH]c2ccccc12)NC(=O)[C@@H](CCCN)NC(=O)CNC(=O)[C@H](CCCN)NC(=O)[C@@H](CCCN)NC(=O)[C@@H](Cc1c[nH]c2ccccc12)NC(=O)[C@@H](Cc1ccc(O)cc1)NC(=O)[C@@H](CO)NC(=O)CCCCCC(C)C)C(=O)N[C@H](C(=O)N[C@@H](CC(N)=O)C(=O)NCC(=O)NCC(N)=O)[C@@H](C)CC [Dap(Alloc)] ({Octanoyl(7-Me)}-[dS][dY][dW][dOrn][Orn]G[dOrn]W[Dap](Alloc)INGG-NH2),1 to 2
12,CC[C@H](C)[C@H](NC(=O)[C@H](CCC(N)=O)NC(=O)[C@H](Cc1c[nH]c2ccccc12)NC(=O)[C@@H](CCCN)NC(=O)CNC(=O)[C@H](CCCN)NC(=O)[C@@H](CCCN)NC(=O)[C@@H](Cc1c[nH]c2ccccc12)NC(=O)[C@@H](Cc1ccc(O)cc1)NC(=O)[C@@H](CO)NC(=O)CCCCCC(C)C)C(=O)N[C@@H](CC(N)=O)C(=O)NCC(=O)NCC(N)=O [Gln9-CONH2] ({Octanoyl(7-Me)}-[dS][dY][dW][dOrn][Orn]G[dOrn]WQINGG-NH2),4
13,C=CCOC(=O)CC[C@H](NC(=O)[C@H](Cc1c[nH]c2ccccc12)NC(=O)[C@@H](CCCN)NC(=O)CNC(=O)[C@H](CCCN)NC(=O)[C@@H](CCCN)NC(=O)[C@@H](Cc1c[nH]c2ccccc12)NC(=O)[C@@H](Cc1ccc(O)cc1)NC(=O)[C@@H](CO)NC(=O)CCCCCC(C)C)C(=O)N[C@H](C(=O)N[C@@H](CC(N)=O)C(=O)NCC(=O)NCC(N)=O)[C@@H](C)CC [Glu(OAll)9-CONH2] ({Octanoyl(7-Me)}-[dS][dY][dW][dOrn][Orn]G[dOrn]WE(OAll)INGG-NH2),8
14,CC[C@H](C)[C@H](NC(=O)[C@H](CC(C)C)NC(=O)[C@H](Cc1c[nH]c2ccccc12)NC(=O)[C@@H](CCCN)NC(=O)CNC(=O)[C@H](CCCN)NC(=O)[C@@H](CCCN)NC(=O)[C@@H](Cc1c[nH]c2ccccc12)NC(=O)[C@@H](Cc1ccc(O)cc1)NC(=O)[C@@H](CO)NC(=O)CCCCCC(C)C)C(=O)N[C@@H](CC(N)=O)C(=O)NCC(=O)NCC(N)=O [Leu9-CONH2] ({Octanoyl(7-Me)}-[dS][dY][dW][dOrn][Orn]G[dOrn]WLINGG-NH2),2 to 4
15,CC[C@H](C)[C@H](NC(=O)[C@@H](NC(=O)[C@H](Cc1c[nH]c2ccccc12)NC(=O)[C@@H](CCCN)NC(=O)CNC(=O)[C@H](CCCN)NC(=O)[C@@H](CCCN)NC(=O)[C@@H](Cc1c[nH]c2ccccc12)NC(=O)[C@@H](Cc1ccc(O)cc1)NC(=O)[C@@H](CO)NC(=O)CCCCCC(C)C)[C@@H](C)O)C(=O)N[C@@H](CC(N)=O)C(=O)NCC(=O)NCC(=O)O [Linear Laterocidine (Thr9-COOH)] ({Octanoyl(7-Me)}-[dS][dY][dW][dOrn][Orn]G[dOrn]WTINGG-OH),4 to 8
